The supplement of paper PMC4862054

System: HCC1937
Assay: normalised viability (% of control), CellTiter-Blue; higher = more viable cells (about 100 = DMSO control)
Conditions: 100 nM; incubation time: 72 h
How it was run: (§1)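 Breast cancer cell lines in 20 µl suspension were seeded onto 384-well plates pre-loaded with compound dissolved in 5 µl medium, then incubated 72 h. CellTiter-Blue reagent (2.5 µl) was added for 2 h at 37 °C and fluorescence read at 560/590 nm. Each plate was normalised to vehicle (100) and a positive kill control (0), with Z'-factor quality control. The value is normalised viability at one listed concentration of the series.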

Compound | normalised viability
CO[C@H]1/C=C\C=C(/C)C(=O)NC2=CC(=O)C(NCCN(C)C)=C(C[C@@H](C)C[C@H](OC)[C@H](O)[C@@H](C)/C=C(\C)[C@@H]1OC(N)=O)C2=O [Alvespimycin] | 40.7%
NC(=O)Nc1cc(-c2cccc(F)c2)sc1C(=O)N[C@H]1CCCNC1 [AZD 7762] | 108%

Same assay, conditions: 1000 nM; incubation time: 72 h

Compound | normalised viability
CCN(CCCOc1ccc2c(Nc3cc(CC(=O)Nc4cccc(F)c4)[nH]n3)ncnc2c1)CCOP(=O)(O)O [Barasertib] | 52.8%
CO[C@H]1/C=C\C=C(/C)C(=O)NC2=CC(=O)C(NCCN(C)C)=C(C[C@@H](C)C[C@H](OC)[C@H](O)[C@@H](C)/C=C(\C)[C@@H]1OC(N)=O)C2=O [Alvespimycin] | 29%
NC(=O)Nc1cc(-c2cccc(F)c2)sc1C(=O)N[C@H]1CCCNC1 [AZD 7762] | 27.9%

System: SK-BR-3
Assay: as above
Conditions: 1 nM; incubation time: 72 h
How it was run: as §1

Compound | normalised viability
CCN(CCCOc1ccc2c(Nc3cc(CC(=O)Nc4cccc(F)c4)[nH]n3)ncnc2c1)CCOP(=O)(O)O [Barasertib] | 107%
CO[C@H]1/C=C\C=C(/C)C(=O)NC2=CC(=O)C(NCCN(C)C)=C(C[C@@H](C)C[C@H](OC)[C@H](O)[C@@H](C)/C=C(\C)[C@@H]1OC(N)=O)C2=O [Alvespimycin] | 97.7%
NC(=O)Nc1cc(-c2cccc(F)c2)sc1C(=O)N[C@H]1CCCNC1 [AZD 7762] | 101%

Same assay, conditions: 100 nM; incubation time: 72 h

Compound | normalised viability
CCN(CCCOc1ccc2c(Nc3cc(CC(=O)Nc4cccc(F)c4)[nH]n3)ncnc2c1)CCOP(=O)(O)O [Barasertib] | 82.7%
CO[C@H]1/C=C\C=C(/C)C(=O)NC2=CC(=O)C(NCCN(C)C)=C(C[C@@H](C)C[C@H](OC)[C@H](O)[C@@H](C)/C=C(\C)[C@@H]1OC(N)=O)C2=O [Alvespimycin] | 19%
NC(=O)Nc1cc(-c2cccc(F)c2)sc1C(=O)N[C@H]1CCCNC1 [AZD 7762] | 93.2%

Same assay, conditions: 1000 nM; incubation time: 72 h

Compound | normalised viability
CCN(CCCOc1ccc2c(Nc3cc(CC(=O)Nc4cccc(F)c4)[nH]n3)ncnc2c1)CCOP(=O)(O)O [Barasertib] | 91.9%
CO[C@H]1/C=C\C=C(/C)C(=O)NC2=CC(=O)C(NCCN(C)C)=C(C[C@@H](C)C[C@H](OC)[C@H](O)[C@@H](C)/C=C(\C)[C@@H]1OC(N)=O)C2=O [Alvespimycin] | 16.3%
NC(=O)Nc1cc(-c2cccc(F)c2)sc1C(=O)N[C@H]1CCCNC1 [AZD 7762] | 11.5%

System: Hs578T
Assay: normalised response (% of control), CellTiter-Glo; higher = more viable cells (100 = DMSO, 0 = benzethonium chloride kill control)
Conditions: incubation time: 72 h
Experimental: (§2)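 DSRT, 72 h incubation, CellTox Green / CellTiter-Glo readout. Signal is normalised to DMSO and benzethonium chloride controls. Value is the normalised response at the highest dose.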

Compound | normalised response
O=C1CCC(N2C(=O)c3ccccc3C2=O)C(=O)N1 (stereo unspecified) [Thalidomide] (10000 nM) | 96.8%
Oc1nc(-c2ccc(C(F)(F)F)cc2)nc2c1CSCC2 [XAV-939] (10000 nM) | 95.9%
O=P1(NCCCl)OCCCN1CCCl (stereo unspecified) [Ifosfamide] (10000 nM) | 98.7%
Clc1ccc(Nc2nnc(Cc3ccncc3)c3ccccc23)cc1 [Vatalanib] (10000 nM) | 106%
C[C@@H](Oc1cc(-c2cnn(C3CCNCC3)c2)cnc1N)c1c(Cl)ccc(F)c1Cl [Crizotinib] (1000 nM) | 95.9%
CCC1(c2ccc(N)cc2)CCC(=O)NC1=O (stereo unspecified) [Aminoglutethimide] (10000 nM) | 95.1%
Cc1ccc(C(=O)N(CCCN)[C@@H](c2oc3cc(Cl)ccc3c(=O)c2Cc2ccccc2)C(C)C)cc1 (100 nM) | 100%
Cn1c(CCCC(=O)O)nc2cc(N(CCCl)CCCl)ccc21 [Bendamustine] (10000 nM) | 103%
CN[C@@H]1C[C@H]2O[C@@](C)([C@@H]1OC)n1c3ccccc3c3c4c(c5c6ccccc6n2c5c31)C(=O)N[C@H]4O [UCN-01] (10000 nM) | 2.67%
C#Cc1cccc(Nc2ncnc3cc(OCCOC)c(OCCOC)cc23)c1 [Erlotinib] (10000 nM) | 85.8%
N.N.[Cl][Pt][Cl] [Cisplatin] (1000 nM) | 100%
Cn1c(Nc2ccc(C(F)(F)F)cc2)nc2cc(Oc3ccnc(-c4ncc(C(F)(F)F)[nH]4)c3)ccc21 [RAF265] (1000 nM) | 78.2%
C=C(c1ccc(C(=O)O)cc1)c1cc2c(cc1C)C(C)(C)CCC2(C)C [Bexarotene] (10000 nM) | 80.8%
C[C@]12CC[C@@H]3c4ccc(O)cc4C[C@@H](CCCCCCCCC[S+]([O-])CCCC(F)(F)C(F)(F)F)[C@H]3[C@@H]1CC[C@@H]2O (stereo partly specified) [Fulvestrant] (1000 nM) | 103%

System: MDA-MB-468
Assay: as above
Conditions: incubation time: 72 h
Experimental: as §2

Compound | normalised response
O=C1CCC(N2C(=O)c3ccccc3C2=O)C(=O)N1 (stereo unspecified) [Thalidomide] (10000 nM) | 91.6%
Oc1nc(-c2ccc(C(F)(F)F)cc2)nc2c1CSCC2 [XAV-939] (10000 nM) | 92.1%
O=P1(NCCCl)OCCCN1CCCl (stereo unspecified) [Ifosfamide] (10000 nM) | 93.7%
Clc1ccc(Nc2nnc(Cc3ccncc3)c3ccccc23)cc1 [Vatalanib] (10000 nM) | 75.2%
C[C@@H](Oc1cc(-c2cnn(C3CCNCC3)c2)cnc1N)c1c(Cl)ccc(F)c1Cl [Crizotinib] (1000 nM) | 88.1%
CCC1(c2ccc(N)cc2)CCC(=O)NC1=O (stereo unspecified) [Aminoglutethimide] (10000 nM) | 97.3%
Cc1ccc(C(=O)N(CCCN)[C@@H](c2oc3cc(Cl)ccc3c(=O)c2Cc2ccccc2)C(C)C)cc1 (100 nM) | 101%
Cn1c(CCCC(=O)O)nc2cc(N(CCCl)CCCl)ccc21 [Bendamustine] (10000 nM) | 116%
CN[C@@H]1C[C@H]2O[C@@](C)([C@@H]1OC)n1c3ccccc3c3c4c(c5c6ccccc6n2c5c31)C(=O)N[C@H]4O [UCN-01] (10000 nM) | 1.36%
C#Cc1cccc(Nc2ncnc3cc(OCCOC)c(OCCOC)cc23)c1 [Erlotinib] (10000 nM) | 59.1%
N.N.[Cl][Pt][Cl] [Cisplatin] (1000 nM) | 105%
Cn1c(Nc2ccc(C(F)(F)F)cc2)nc2cc(Oc3ccnc(-c4ncc(C(F)(F)F)[nH]4)c3)ccc21 [RAF265] (1000 nM) | 50.8%
C=C(c1ccc(C(=O)O)cc1)c1cc2c(cc1C)C(C)(C)CCC2(C)C [Bexarotene] (10000 nM) | 110%
